For assay [1], the target named is hMC1−5R. Description: Melanocortin receptor cAMP assay, result stated for all receptors together. The assay is classed as cell-based, human. The conditions noted are these: one bound printed for all receptors. The text has this: Example concentration response curves for selected PepNats in MC1R, MC3R, MC4R, MC5R radioligand binding assays and MC1R, MC3R, MC4R cAMP assays. Responses were normalized to reference agonist NDP -α-MSH and presented as % effect of control, with full competition in binding defined as -100% and full agonism in cAMP assays defined as […]
binding assay. Threshold to define a compound as active was set to -30% in binding assays and 20% in cAMP assays respectively. Data are from at least three independent experiments and error bars represent ± Standard Error of the […]
% s p e c ific b in d in g o f
(1 picture or pasted object on this page, not shown here) […]
to the elution profile of the crude product . The relevant fractions containing the desired product were collected, analyzed by RP-HPLC-MS and accordingly pooled and lyophilized.
HRMS were obtained on a Thermo Scientific LTQ Fleet Orbitrap mass spectrometer coupled to an Accela HPLC-System (HPLC column: Hypersyl GOLD, 50 mm x 1 mm, particle size 1.9 μm) equipped with an electron spray ionization source (ESI). The mass detection was recorded in the range of […]
2) B) Biochemical Assays Materials and Methods
Surface Plasmon Resonance (SPR)
All SPR experiments were conducted on a Biacore T200, S200 or 8K instrument (GE Healthcare) at 20 °C using HBS-P+ as running buffer (GE Healthcare). […]

Assay [2] addresses T1, human MC5R (Homo sapiens, UniProt P33032).
T1 construct: expressed in transfected cells; host or cells: HEK293-6E suspension cells, transient expression; membranes
Description: Melanocortin receptor radioligand binding (SPA, [125I]-NDP-α-MSH displacement), MC5R. The note with it: competitive binding, [125I]-NDP-α-MSH; mean (± SEM) of at least three independent experiments; read-out: IC50 hMC5R binding.

T1 sequence (P33032 whole entry): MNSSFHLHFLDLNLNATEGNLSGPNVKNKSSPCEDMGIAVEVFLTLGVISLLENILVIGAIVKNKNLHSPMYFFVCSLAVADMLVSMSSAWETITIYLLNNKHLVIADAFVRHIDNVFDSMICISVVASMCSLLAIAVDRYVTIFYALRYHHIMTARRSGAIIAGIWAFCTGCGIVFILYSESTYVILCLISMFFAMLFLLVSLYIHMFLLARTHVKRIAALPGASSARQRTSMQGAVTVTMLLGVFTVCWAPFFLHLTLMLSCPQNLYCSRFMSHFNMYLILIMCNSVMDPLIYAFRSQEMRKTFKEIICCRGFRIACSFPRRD

Turning to `CN1C(=O)[C@H]2N[C@@H](c3ccc(cc3)C(=O)NCCCC[C@@H](C(=O)N[C@@H](Cc3ccc(O)cc3)C(N)=O)NC(=O)[C@H](CC(N)=O)NC(=O)[C@@H](Cc3ccccc3)NC(=O)[C@@H](Cc3ccccc3)NC(=O)[C@H](CCCNC(=N)N)NC(=O)[C@@H]1Cc1ccccc1)[C@H]1C(=O)N(c3ccccc3)C(=O)[C@H]12` [K1-minor, [II-FRffNK ]Y], in assay [1], the EC50 is > 100 µM. Also, the IC50 in assay [2] was > 100 µM.

For the origin of these results see article PMC7307906, “Macrocyclic Modalities Combining Peptide Epitopes and Natural Product Fragments” (Journal of the American Chemical Society, 2020).
